# Reference: publication PMC12190436, “5-Ene-2-arylaminothiazol-4(5H)-ones Induce Apoptosis in Breast Cancer Cells” (Cells, 2025)
# Where a name gives a salt, the structure may show the parent alone. Read-outs that look alike come from different tables or passages of the source.
# Assays:
# [1] = tested on: panel of 60 cancer cell lines; format: cell-based; settings: for Mean Growth, % / Range of Growth, % / Positive Cytostatic Effect / Positive Cytotoxic Effect: 10 μM; for Mean Growth, % / Range of Growth, %: one dose; for Positive Cytostatic Effect: number of cell lines with GP from 0 to 50 / total number of cell lines; for Positive Cytotoxic Effect: number of cell lines with GP of <0 / total number of cell lines; for LC50: read-out: MG_MID_60 LC50
# MCF-7 cells = experiment: ROS generation, H2DCFDA/DAPI double staining; format: cell-based, human
# Experimental: MCF-7 cells were seeded in 6-well plates at 1 × 10^5 cells per well in 2 mL medium. Afterwards, cells were treated with the mentioned compounds for 1 and 3 h, respectively. Next, cells were washed, and 20 µM of H2DCFDA was added for 30 min. After that, 10 µg/mL of DAPI was added to observe the nuclear DNA of cells. The results were obtained with the use of a Nikon ECLIPSE Ti fluorescence microscope (Nikon, Tokyo, Japan), followed by further assessment via ImageJ software version 1.54k (Bethesda, MD, USA).
# H2DCFDA (green fluorescence) was utilized to mark oxidative stress, and DAPI (blue fluorescence) to stain nuclear genetic material.
# A498 = format: cell-based
# K-562 = format: cell-based
# MDA-MB-231/ATCC = format: cell-based
# NCI-H23 = format: cell-based
# Leukemia = format: cell-based
# BT-549 = format: cell-based
# 786-0 = format: cell-based
# SF-539 = format: cell-based
# SF-268 = format: cell-based
# HS 578T = format: cell-based
# A549/ATCC = format: cell-based
# SK-OV-3 = format: cell-based
# T-47D = format: cell-based
# Renal Cancer = format: cell-based
# COLO 205 = format: cell-based
# UACC-257 = format: cell-based
# [2] = tested on: Non-small Cell Lung Cancer; format: cell-based
# U251 = format: cell-based
# SNB-75 = format: cell-based
# HCT-116 = format: cell-based
# SW-620 = format: cell-based
# [3] = Homo sapiens, 48 h, read-out: LC50 (the source's name)
compound,measurement,setting,value
"COc1cc(NC2=NC(=O)C(=Cc3ccc4cc[nH]c4c3)S2)cc(OC)c1OC [Les-6416, 5-((1H-Indol-6-yl)methylene)-2-((3,4,5-trimethoxyphenyl)amino)thiazol-4(5H)-one]","Mean Growth, %",[1]; 48 h,39.56%
same,"Range of Growth, %",[1]; 48 h,−33.26–97.05%
same,Positive Cytostatic Effect,[1],38/58
same,Positive Cytotoxic Effect,[1],2/58
same,ROS generation versus control,"MCF-7 cells; 2.5 µM, 3 h",approximately two times more than the untreated control
same,ROS generation versus control,"MCF-7 cells; 5 µM, 1 h",two times more than the control
same,ROS generation versus control,"MCF-7 cells; 5 µM, 3 h",approximately a threefold increase
"COc1cccc2c1C(=O)c1c(O)c3c(c(O)c1C2=O)C[C@@](O)(C(=O)CO)C[C@@H]3O[C@H]1C[C@H](N)[C@H](O)[C@H](C)O1 [DOX, Doxorubicin hydrochloride, reference compound]",ROS generation versus control,"MCF-7 cells; 0.5 µM, 3 h",approximately two times more than the untreated control
"COc1cc(NC2=NC(=O)C(=Cc3c[nH]c4ccccc34)S2)cc(OC)c1OC [Les-6418, 5-((1H-Indol-3-yl)methylene)-2-((3,4,5-trimethoxyphenyl)amino)thiazol-4(5H)-one]",Growth %,"A498; A498, 10 μM, one dose, 48 h",−76.12%
same,TGI,"A498; A498, 48 h",24.6 µM
same,SI (TGI),"A498; A498, MG_MID_60/value",0.76
same,GI50,"A498; Homo sapiens, A498, 48 h",10.2 µM
same,CC50,"A498; Homo sapiens, A498, 48 h, read-out: LC50 (the source's name)",59.6 µM
same,GI50,"K-562; Homo sapiens, K562, K-562, 48 h",0.526 µM
same,CC50,"K-562; Homo sapiens, K562, K-562, 48 h, read-out: LC50 (the source's name)",> 100 µM
same,TGI,"K-562; K-562, 48 h",31.1 µM
same,SI (TGI),"K-562; K-562, MG_MID_60/value",0.60
same,TGI,MDA-MB-231/ATCC; 48 h,18.8 µM
same,GI50,"MDA-MB-231/ATCC; Homo sapiens, 48 h",4.77 µM
same,CC50,MDA-MB-231/ATCC; [3],55.2 µM
same,SI (TGI),MDA-MB-231/ATCC; MG_MID_60/value,0.99
same,GI50,"NCI-H23; Homo sapiens, NCI-H23, 48 h",5.33 µM
same,CC50,"NCI-H23; Homo sapiens, NCI-H23, 48 h, read-out: LC50 (the source's name)",54 µM
same,TGI,"NCI-H23; NCI-H23, 48 h",21.1 µM
same,SI (TGI),"NCI-H23; NCI-H23, MG_MID_60/value",0.88
same,GI50,"Leukemia; Homo sapiens, Leukemia subpanel mean, read-out: MG_MID GI50",2.04 µM
same,CC50,"Leukemia; Homo sapiens, Leukemia subpanel mean, read-out: MG_MID LC50",> 100 µM
same,MG_MID TGI,Leukemia; Leukemia subpanel mean,49.7 µM
same,SI (MG_MID TGI),"Leukemia; Leukemia subpanel, MG_MID_60/value",0.37
same,"Mean Growth, %",[1]; 48 h,−43.64%
same,"Range of Growth, %",[1]; 48 h,−88.00–14.92%
same,Positive Cytostatic Effect,[1],7/59
same,Positive Cytotoxic Effect,[1],52/59
same,LC50,"[1]; Homo sapiens, 48 h, full panel mean, 48 h",56.6 µM
same,GI50,"[1]; Homo sapiens, CCRF-CEM, HL-60(TB), SR, NCI-H522, HT29, KM12, MDA-MB-435, OVCAR-3, ACHN, BT-549, MDA-MB-468, read-out: GI50, submicromolar concentration range",0.28 to 0.98 µM
same,GI50,"[1]; Homo sapiens, full panel mean, 48 h, read-out: MG_MID_60 GI50",3.27 µM
same,MG_MID_60 TGI,"[1]; full panel mean, 48 h",18.6 µM
same,LC50,"[1]; full panel mean, 48 h",56.5 µM
same,SI against certain types of cancer,[1]; subpanel selectivity indices at studied dose–response parameters,0.71–1.60
same,TGI,"BT-549; BT-549, 48 h",10.7 µM
same,SI (TGI),"BT-549; BT-549, MG_MID_60/value",1.74
same,GI50,"BT-549; Homo sapiens, BT-549, 48 h",0.81 µM
same,CC50,"BT-549; Homo sapiens, BT-549, 48 h, read-out: LC50 (the source's name)",39.2 µM
same,Growth %,"786-0; 786-0, 10 μM, one dose, 48 h",−73.06%
same,TGI,"786-0; 786-0, 48 h",11.9 µM
same,SI (TGI),"786-0; 786-0, MG_MID_60/value",1.56
same,GI50,"786-0; Homo sapiens, 786-0, 48 h",2.72 µM
same,CC50,"786-0; Homo sapiens, 786-0, 48 h, read-out: LC50 (the source's name)",55.7 µM
same,GI50,"SF-539; Homo sapiens, SF-539, 48 h",2.49 µM
same,CC50,"SF-539; Homo sapiens, SF-539, 48 h, read-out: LC50 (the source's name)",35.5 µM
same,Growth %,"SF-539; SF-539, 10 μM, one dose, 48 h",−85.30%
same,TGI,"SF-539; SF-539, 48 h",9.95 µM
same,SI (TGI),"SF-539; SF-539, MG_MID_60/value",1.87
same,GI50,"SF-268; Homo sapiens, SF-268, 48 h",3.56 µM
same,CC50,"SF-268; Homo sapiens, SF-268, 48 h, read-out: LC50 (the source's name)",81.3 µM
same,TGI,"SF-268; SF-268, 48 h",20.0 µM
same,SI (TGI),"SF-268; SF-268, MG_MID_60/value",0.93
same,TGI,HS 578T; 48 h,11.9 µM
same,GI50,"HS 578T; Homo sapiens, 48 h",2.33 µM
same,CC50,HS 578T; [3],> 100 µM
same,SI (TGI),HS 578T; MG_MID_60/value,1.56
same,TGI,A549/ATCC; 48 h,16.5 µM
same,GI50,"A549/ATCC; Homo sapiens, 48 h",2.84 µM
same,LC50,"A549/ATCC; Homo sapiens, 48 h",73.6 µM
same,SI (TGI),A549/ATCC; MG_MID_60/value,1.13
same,GI50,"SK-OV-3; Homo sapiens, SK-OV-3, 48 h",2.56 µM
same,CC50,"SK-OV-3; Homo sapiens, SK-OV-3, 48 h, read-out: LC50 (the source's name)",38.5 µM
same,TGI,"SK-OV-3; SK-OV-3, 48 h",10.3 µM
same,SI (TGI),"SK-OV-3; SK-OV-3, MG_MID_60/value",1.81
same,TGI,T-47D; 48 h,19.7 µM
same,GI50,"T-47D; Homo sapiens, T47D, 48 h",3.58 µM
same,CC50,"T-47D; Homo sapiens, T47D, 48 h, read-out: LC50 (the source's name)",61.2 µM
same,SI (TGI),T-47D; MG_MID_60/value,0.94
same,GI50,"Renal Cancer; Homo sapiens, Renal Cancer subpanel mean, read-out: MG_MID GI50",4.22 µM
same,CC50,"Renal Cancer; Homo sapiens, Renal Cancer subpanel mean, read-out: MG_MID LC50",44.6 µM
same,MG_MID TGI,Renal Cancer; Renal Cancer subpanel mean,14.5 µM
same,SI (MG_MID TGI),"Renal Cancer; Renal Cancer subpanel, MG_MID_60/value",1.28
same,TGI,"COLO 205; COLO 205, 48 h",16.4 µM
same,SI (TGI),"COLO 205; COLO 205, MG_MID_60/value",1.13
same,GI50,"COLO 205; Homo sapiens, COLO 205, 48 h",3.14 µM
same,CC50,"COLO 205; Homo sapiens, COLO 205, 48 h, read-out: LC50 (the source's name)",49.6 µM
same,GI50,"UACC-257; Homo sapiens, UACC-257, 48 h",5.18 µM
same,CC50,"UACC-257; Homo sapiens, UACC-257, 48 h, read-out: LC50 (the source's name)",52.7 µM
same,TGI,"UACC-257; UACC-257, 48 h",21.1 µM
same,SI (TGI),"UACC-257; UACC-257, MG_MID_60/value",0.88
same,GI50,"[2]; Homo sapiens, Non-small Cell Lung Cancer subpanel mean, read-out: MG_MID GI50",3.66 µM
same,CC50,"[2]; Homo sapiens, Non-small Cell Lung Cancer subpanel mean, read-out: MG_MID LC50",61.1 µM
same,MG_MID TGI,[2]; Non-small Cell Lung Cancer subpanel mean,15.6 µM
same,SI (MG_MID TGI),"[2]; Non-small Cell Lung Cancer subpanel, MG_MID_60/value",1.19
same,GI50,"U251; Homo sapiens, U-251, U251, 48 h",3.27 µM
same,CC50,"U251; Homo sapiens, U-251, U251, 48 h, read-out: LC50 (the source's name)",54.7 µM
same,TGI,"U251; U251, 48 h",15.7 µM
same,SI (TGI),"U251; U251, MG_MID_60/value",1.18
same,Growth %,"U251; U-251, 10 μM, one dose, 48 h",−79.79%
same,GI50,"SNB-75; Homo sapiens, SNB-75, 48 h",1.24 µM
same,CC50,"SNB-75; Homo sapiens, SNB-75, 48 h, read-out: LC50 (the source's name)",11.9 µM
same,TGI,"SNB-75; SNB-75, 48 h",3.63 µM
same,SI (TGI),"SNB-75; SNB-75, MG_MID_60/value",5.12
same,TGI,"HCT-116; HCT-116, 48 h",10.2 µM
same,SI (TGI),"HCT-116; HCT-116, MG_MID_60/value",1.82
same,GI50,"HCT-116; Homo sapiens, HCT-116, 48 h",1.1 µM
same,CC50,"HCT-116; Homo sapiens, HCT-116, 48 h, read-out: LC50 (the source's name)",50.6 µM
same,GI50,"SW-620; Homo sapiens, SW-620, 48 h",3.1 µM
same,CC50,"SW-620; Homo sapiens, SW-620, 48 h, read-out: LC50 (the source's name)",85 µM
same,TGI,"SW-620; SW-620, 48 h",21.8 µM
same,SI (TGI),"SW-620; SW-620, MG_MID_60/value",0.85
